In patent US20230355597A1, “COMPOUNDS, COMPOSITIONS, AND METHODS FOR THE TREATMENT AND PREVENTION OF AVIAN PATHOGENIC E. COLI (APEC)” (OHIO STATE INNOVATION FOUNDATION, priority 2018, published 2023):
Converted amounts (≈) assume the structure as drawn. Marks after values point to notes of the source that are not given here.

Experiments:
[1] = test system: APEC O18; assay type: cell-based, avian pathogenic Escherichia coli (APEC); conditions: APEC O18, M63 media; MIC/MBC
[2] = test system: APEC O15; assay type: cell-based, avian pathogenic Escherichia coli (APEC); conditions: APEC O15, M63 media; MIC/MBC
[3] = test system: intracellular APEC O78 in HD11 cells; test: Intracellular survival assay (cidal SMs); conditions: O78, HD11, 6 h treatment; superscript = multiple of MIC
[4] = test system: APEC O2; assay type: cell-based, avian pathogenic Escherichia coli (APEC); conditions: APEC O2, M63 media; MIC/MBC
[5] = test system: APEC O1-63; assay type: cell-based, avian pathogenic Escherichia coli (APEC); conditions: APEC O1-63, M63 media; MIC/MBC
[6] = test system: APEC O1; assay type: cell-based, avian pathogenic Escherichia coli (APEC); conditions: APEC O1, M63 media; MIC/MBC
[7] = test system: APEC O78; test: Loss of 260/280 nm absorbing materials assay; assay type: cell-based, avian pathogenic Escherichia coli (APEC); conditions: 2X MBC, 1 h, *P<0.05 vs DMSO
[8] = test system: intracellular APEC O1 in Caco-2 cells; test: Intracellular survival assay (cidal SMs); conditions: O1, Caco-2, 6 h treatment; superscript = multiple of MIC
[9] = test system: intracellular APEC O2 in THP-1 cells; test: Intracellular survival assay (cidal SMs); conditions: O2, THP-1, 6 h treatment; superscript = multiple of MIC
[10] = test system: biofilm embedded APEC O78; test: MBEC High-throughput assay; assay type: cell-based, avian pathogenic Escherichia coli (APEC); conditions: biofilm embedded APEC O78; superscript = multiple of MIC (footnote)
Method: Effect against biofilm embedded APEC. The effect of cidal SMs against biofilm embedded APEC was determined using MBEC High-throughput (HTP) assay (Innovotech Inc., AB, Canada). Briefly, 150 µL of 0.05 OD600 adjusted APEC O78 culture was aliquoted into each well of the MBEC device containing polystyrene pegs and incubated at 37° C. for 36 h in LB media under stationary condition. […] The plate was incubated in the dark for 18 h at 37° C. with rotation at 110 rpm. The DMSO (1%) and M63 media were used as positive and negative controls, respectively. Following incubation, MIC of SMs in challenged plate was recorded. The SMs exposed pegs were then transferred to a new 96-well plate containing PBS and sonicated for 30 mins (Aquasonic ultrasonic cleaner, VWR) to disrupt the biofilm. […] Biofilm embedded APEC bacteria were enumerated and minimum biofilm eradication concentration (MBEC) of […] were determined. Two independent experiments were conducted.

[11] = test system: APEC O2-211; assay type: cell-based, avian pathogenic Escherichia coli (APEC); conditions: APEC O2-211, M63 media; MIC/MBC
[12] = test system: Rif^r APEC O78; test: In vivo efficacy of growth inhibitors in APEC infected broiler chickens
[13] = test system: APEC O35; assay type: cell-based, avian pathogenic Escherichia coli (APEC); conditions: APEC O35, M63 media; MIC/MBC
[14] = test system: intracellular APEC O78 in THP-1 cells; test: Intracellular survival assay (cidal SMs); conditions: O78, THP-1, 6 h treatment; superscript = multiple of MIC
[15] = test system: intracellular APEC O78 in Caco-2 cells; test: Intracellular survival assay (cidal SMs); conditions: O78, Caco-2, 6 h treatment; superscript = multiple of MIC
[16] = test system: APEC O115; assay type: cell-based, avian pathogenic Escherichia coli (APEC); conditions: APEC O115, M63 media; MIC/MBC
[17] = test system: APEC O78; test: Confocal microscopy bacterial cytological profiling; assay type: cell-based, avian pathogenic Escherichia coli (APEC); conditions: 2X MBC
Method: Confocal and scanning electron microscopy. Confocal microscopy was used for bacterial cytological profiling (BCP) to identify the cellular pathways targeted by SMs as described previously. […] After incubation, treated cultures were centrifuged, washed, and resuspended in 100 μL PBS. […] Cultures were then centrifuged, washed, and resuspended in PBS to 1⁄10th volume of the original cultures.

[18] = test system: intracellular APEC O1 in HD11 cells; test: Intracellular survival assay (cidal SMs); conditions: O1, HD11, 6 h treatment; superscript = multiple of MIC
[19] = test system: APEC O78; assay type: cell-based, avian pathogenic Escherichia coli (APEC)
[20] = test system: intracellular APEC O1 in THP-1 cells; test: Intracellular survival assay (cidal SMs); conditions: O1, THP-1, 6 h treatment; superscript = multiple of MIC
[21] = test system: APEC O78-53; assay type: cell-based, avian pathogenic Escherichia coli (APEC); conditions: APEC O78-53, M63 media; MIC/MBC
[22] = test system: APEC O8; assay type: cell-based, avian pathogenic Escherichia coli (APEC); conditions: APEC O8, M63 media; MIC/MBC
[23] = test system: intracellular APEC O2 in Caco-2 cells; test: Intracellular survival assay (cidal SMs); conditions: O2, Caco-2, 6 h treatment; superscript = multiple of MIC
[24] = test system: APEC O109; assay type: cell-based, avian pathogenic Escherichia coli (APEC); conditions: APEC O109, M63 media; MIC/MBC
[25] = test system: intracellular APEC O2 in HD11 cells; test: Intracellular survival assay (cidal SMs); conditions: O2, HD11, 6 h treatment; superscript = multiple of MIC
[26] = test system: AI-2 activity of APEC O109; test: AI-2 bioluminescence indicator assay (V. harveyi BB170); conditions: APEC O109, 100 µM
[27] = test system: AI-2 activity of APEC O2; test: as above; conditions: APEC O2, 100 µM
[28] = test system: AI-2 activity of APEC O8; test: as above; conditions: APEC O8, 100 µM
[29] = test system: Rif^r APEC O78; test: Wax moth (Galleria mellonella) larva infection model (AI-2 inhibitors)
[30] = test system: AI-2 activity of APEC O15; test: AI-2 bioluminescence indicator assay (V. harveyi BB170); conditions: APEC O15, 100 µM
[31] = test system: AI-2 activity of APEC O78; test: as above; conditions: APEC O78, 100 µM
[32] = test system: AI-2 activity of APEC O1; test: as above; conditions: APEC O1, 100 µM
[33] = test system: AI-2 activity of APEC O115; test: as above; conditions: APEC O115, 100 µM
[34] = test system: AI-2 activity of APEC O35; test: as above; conditions: APEC O35, 100 µM
[35] = test system: AI-2 activity of APEC O18; test: as above; conditions: APEC O18, 100 µM
[36] = test system: Rif^r APEC O78; test: In vivo screening of quorum sensing inhibitors in APEC infected broiler chickens; conditions: for reduction in chicken mortality: DMSO control mortality normalized to 100%; for Mortality rate (%): oral gavage once a day, day 4 to day 8, DMSO control 66.7%; for Reduction in APEC lesions severity, Air-sacs (%) / Reduction in APEC lesions severity, Heart (%) / Reduction in APEC lesions severity, Liver (%) / Reduction in APEC lesions severity, Lung (%): vs DMSO treated control

COc1cc(CNCCc2ccc(C)cc2)ccc1OCC(O)CN1CCCC1 (stereo not drawn) [SM3]
MBC [1]: 100 µM (≈ 39.9 µg/mL)
MIC [1]: 100 µM (≈ 39.9 µg/mL)
MBC [2]: 100 µM (≈ 39.9 µg/mL)
MIC [2]: 100 µM (≈ 39.9 µg/mL)
SMs intracellular APEC clearance concentration [3]: 100^a µM
MBC [4]: 200 µM (≈ 79.7 µg/mL)
MIC [4]: 100 µM (≈ 39.9 µg/mL)
MBC [5]: 200 µM (≈ 79.7 µg/mL)
MIC [5]: 200 µM (≈ 79.7 µg/mL)
MBC [6]: 200 µM (≈ 79.7 µg/mL)
MIC [6]: 100 µM (≈ 39.9 µg/mL)
Absorbance 260 ([7]; 260 nm absorbing material in supernatant): 3.77
Absorbance 280 ([7]; 280 nm absorbing material in supernatant): 2.84*
SMs intracellular APEC clearance concentration [8]: >200 µM
SMs intracellular APEC clearance concentration [9]: 100^a µM
MBEC [10]: 50^b µM
MBC [11]: 100 µM (≈ 39.9 µg/mL)
MIC [11]: 100 µM (≈ 39.9 µg/mL)
reduction of average APEC load in internal organs ([12]; average of liver, heart, lung and kidney, vs untreated control): either exacerbated or did not reduce
reduction of APEC lesions severity (%), Air-sacs (airsacculitis) ([12]; untreated control = 100%): -29.4%
reduction of APEC lesions severity (%), Heart (pericarditis) ([12]; untreated control = 100%): 4%
reduction of APEC lesions severity (%), Liver (perihepatitis) ([12]; untreated control = 100%): -20%
reduction of APEC lesions severity (%), Lung (lung congestion) ([12]; untreated control = 100%): 0%
reduction of APEC load, Heart ([12]; vs untreated control): -2.1 log CFU/g of tissues
reduction of APEC load, Kidney ([12]; vs untreated control): -1.4 log CFU/g of tissues
reduction of APEC load, Liver ([12]; vs untreated control): -1.8 log CFU/g of tissues
reduction of APEC load, Lung ([12]; vs untreated control): -2.0 log CFU/g of tissues
Body weight gain (BWG) ([12]; weight of live chickens before necropsy minus weight before treatment): 254.58±95.03
MBC [13]: 200 µM (≈ 79.7 µg/mL)
MIC [13]: 100 µM (≈ 39.9 µg/mL)
SMs intracellular APEC clearance concentration [14]: 100^a µM
SMs intracellular APEC clearance concentration [15]: 100^a µM
MBC [16]: 100 µM (≈ 39.9 µg/mL)
MIC [16]: 100 µM (≈ 39.9 µg/mL)
cytological profile (confocal, FM4-64 / SYTO-9) [17]: membrane pore formers
SMs intracellular APEC clearance concentration [18]: 200^b µM
MBC relative to MIC ([19]; APEC O78): identical to MIC
MIC ([19]; APEC O78, M63 media, MIC/MBC): 100 µM (≈ 39.9 µg/mL)
MBC ([19]; APEC O78, M63 media, cell prints MIC/MBC): 100 µM (≈ 39.9 µg/mL)
SMs intracellular APEC clearance concentration [20]: 200^b µM
MBC [21]: 200 µM (≈ 79.7 µg/mL)
MIC [21]: 100 µM (≈ 39.9 µg/mL)
MBC [22]: 100 µM (≈ 39.9 µg/mL)
MIC [22]: 100 µM (≈ 39.9 µg/mL)
SMs intracellular APEC clearance concentration [23]: >200 µM
MBC [24]: 200 µM (≈ 79.7 µg/mL)
MIC [24]: 100 µM (≈ 39.9 µg/mL)
SMs intracellular APEC clearance concentration [25]: 200^b µM

O=C(CCN1CCN(c2ccccc2F)CC1)Nc1ccc(Br)cc1 [C7, N-(4-bromophenyl)-3-[4-(2-fluomphenyl)-1-piperazinyl]propanamide]
Inhibition % of AI-2 activity [26]: 67%
Inhibition % of AI-2 activity [27]: 83%
Inhibition % of AI-2 activity [28]: 2%
larval death ([29]; 72 h post treatment): no larval death
Inhibition % of AI-2 activity [30]: 36%
Inhibition % of AI-2 activity [31]: 94%
Inhibition % of AI-2 activity [32]: 47%
Inhibition % of AI-2 activity [33]: 45%
Inhibition % of AI-2 activity [34]: 62%
Inhibition % of AI-2 activity [35]: 48%
reduction in chicken mortality [36]: did not reduce
Mortality rate (%) [36]: 66.7%
Reduction in APEC lesions severity, Air-sacs (%) [36]: 33.3%
Reduction in APEC lesions severity, Heart (%) [36]: 33.3%
Reduction in APEC lesions severity, Liver (%) [36]: 33.3%
Reduction in APEC lesions severity, Lung (%) [36]: 83.3%

Cc1ccccc1N1CCN(C2CCCN(C(=O)c3ccc(F)c(Cl)c3)C2)CC1 (stereo not drawn) [C2, 1-[1-{3-chloro-4-fluorbenzoyl)-3-piperdinyl]-4-(2-methylphenyl)piperazine]
Inhibition % of AI-2 activity [26]: 57%
Inhibition % of AI-2 activity [27]: 96%
Inhibition % of AI-2 activity [28]: 20%
larval death ([29]; 48 h post treatment): no larval death
clearance of APEC in live larvae ([29]; 72 h): 100%
Inhibition % of AI-2 activity [30]: 27%
Inhibition % of AI-2 activity [31]: 92%
Inhibition % of AI-2 activity [32]: 64%
Inhibition % of AI-2 activity [33]: 52%
Inhibition % of AI-2 activity [34]: 55%
Inhibition % of AI-2 activity [35]: 43%
reduction in chicken mortality [36]: 50%
Mortality rate (%) [36]: 33.3%
Reduction in APEC lesions severity, Air-sacs (%) [36]: 63.3%
Reduction in APEC lesions severity, Heart (%) [36]: 37.5%
Reduction in APEC lesions severity, Liver (%) [36]: 45.5%
Reduction in APEC lesions severity, Lung (%) [36]: 88.9%
